From US20100152141A1, “COMBINATIONS COMPRISING 5HT6 MODULATORS AND CHOLINESTERASE INHIBITORS” (EPIX DELAWARE, INC, priority 2006, published 2010)

Columns and labels:
[1] = test system: adult male Lister hooded rats; test: novel object discrimination (NOD) task, natural forgetting with 4 h inter-trial interval; assay type: in vivo, rat
Description: NOD testing was performed as described by King et al. (2004 Neuropharmacol. 47 195), and used five separate groups (n=12) of adult male Lister hooded rats (145-235 g). Within each group rats were tested on 3-4 occasions (at one-week intervals) to receive all possible treatment combinations and serve as their own controls.

5-HT6 receptor = 5-HT6 receptor (Homo sapiens, UniProt P50406); test: 5-HT6 receptor affinity (Ki) of Compound A; assay type: binding
5-HT6 receptor, sequence (P50406 whole entry): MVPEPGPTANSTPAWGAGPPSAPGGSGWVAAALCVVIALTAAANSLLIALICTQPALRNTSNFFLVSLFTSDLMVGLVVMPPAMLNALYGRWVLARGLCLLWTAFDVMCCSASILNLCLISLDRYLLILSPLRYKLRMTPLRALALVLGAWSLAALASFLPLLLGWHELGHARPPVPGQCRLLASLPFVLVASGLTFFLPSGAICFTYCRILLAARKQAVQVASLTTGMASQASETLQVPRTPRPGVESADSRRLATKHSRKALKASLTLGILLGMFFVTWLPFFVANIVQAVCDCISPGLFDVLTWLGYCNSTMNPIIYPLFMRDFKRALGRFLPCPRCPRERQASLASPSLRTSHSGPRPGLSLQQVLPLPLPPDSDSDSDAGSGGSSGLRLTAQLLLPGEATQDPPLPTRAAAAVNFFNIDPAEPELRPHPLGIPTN

| SMILES | natural forgetting (discrimination of novel versus familiar object) ([1]; Aricept 0.1 mg/kg i.p., 20 min pre-treatment, 4 h inter-trial interval) | natural forgetting (discrimination of novel versus familiar object) ([1]; Aricept 0.3 mg/kg i.p., 20 min pre-treatment, 4 h inter-trial interval) | discrimination ratio versus vehicle ([1]; Aricept 1 mg/kg i.p., 20 min pre-treatment) | natural forgetting (discrimination of novel versus familiar object) ([1]; Aricept 1 mg/kg i.p., 20 min pre-treatment, 4 h inter-trial interval, novel versus familiar p<0.001) | Ki (5-HT6 receptor) [nM] | natural forgetting (discrimination of novel versus familiar object) ([1]; Compound A 0.3 mg/kg i.p. combined with sub-efficacious dose (0.1 mg/kg i.p.) of Aricept, novel versus familiar p<0.01) | natural forgetting (discrimination of novel versus familiar object) ([1]; Compound A 0.3 mg/kg i.p. given alone) | natural forgetting (discrimination of novel versus familiar object) ([1]; Compound A 1 mg/kg i.p. combined with sub-efficacious dose (0.1 mg/kg i.p.) of Aricept, novel versus familiar p<0.05) | natural forgetting (discrimination of novel versus familiar object) ([1]; Compound A 1 mg/kg i.p. given alone) | natural forgetting (discrimination of novel versus familiar object) ([1]; Compound A 3 mg/kg i.p., 40 min pre-treatment, 4 h inter-trial interval, novel versus familiar p<0.001) | discrimination ratio versus vehicle ([1]; Compound A 3 mg/kg i.p., 40 min pre-treatment, p<0.05 repeated measures ANOVA) | natural forgetting (discrimination of novel versus familiar object) ([1]; Compound A 10 mg/kg i.p., 40 min pre-treatment, 4 h inter-trial interval, novel versus familiar p<0.01) | discrimination ratio versus vehicle ([1]; Compound A 10 mg/kg i.p., 40 min pre-treatment, p<0.05 repeated measures ANOVA) |
| --- | --- | --- | --- | --- | --- | --- | --- | --- | --- | --- | --- | --- | --- |
| COc1cc2c(cc1OC)C(=O)C(CC1CCN(Cc3ccccc3)CC1)C2 (stereo not shown) [Aricept, donepezil, reference compound] | lacked effect | lacked effect | without significantly increasing the discrimination ratio | prevented natural forgetting |  |  |  |  |  |  |  |  |  |
| COc1cc(Cl)cc(C(C)Nc2cc(N3CCNCC3)ccc2S(C)(=O)=O)c1OC.Cl (stereo not shown) [Compound A, [1-(5-Chloro-2,3-dimethoxy-phenyl)-ethyl]-(2-methanesulfonyl-5-piperazin-1-yl-phenyl)-amine hydrochloride] |  |  |  |  | 4 | restored discrimination | lacked significant effect | restored discrimination | lacked significant effect | prevented this natural forgetting | increased the discrimination ratio from vehicle levels | prevented this natural forgetting | increased the discrimination ratio from vehicle levels |
